These are literature values, as cited in patent publication US9573873B2, “Catalytic method for dibenzocycloheptane synthesis and allocolchicinoid synthesis” (UNIVERSITY OF WINDSOR, priority 2014, dated 2017).

The conditions of this series: Phase 2 clinical testing; background statement.

Regarding `COc1cc2c(c(OC)c1OC)-c1ccc(OP(=O)(O)O)cc1[C@@H](NC(C)=O)CC2` [ZD 6126, N-Acetylcolchicinol dihydrogen phosphate], the cardiotoxicity entry is reported as “failed in Phase 2 clinical testing because of this cardiotoxicity”.
